# Key:
# [1] = Sleepiness side effect in the case subjects; type: in vivo, human; conditions: topical application
# From the text: This is probably due to either the local metabolism of melatonin or to the metabolism of melatonin in the liver, which is its primary site of metabolism (Slominski).
# [2] = system: COX-2; conditions: macrophage cells after exposure to LPS; cited from earlier work
# [3] = system: COX-1; conditions: macrophage cells; cited from earlier work
# [4] = system: iNOS; conditions: macrophage cells after exposure to LPS; cited from earlier work
# [5] = system: paw swelling and edema; conditions: systemic melatonin after injection of a noxious stimulant; cited from earlier work
# [6] = system: stressed skin flaps; conditions: animals with pineal glands removed, versus no melatonin; cited from earlier work
smiles,measurement,setting,value
"COc1ccc2[nH]cc(CCNC(C)=O)c2c1 [melatonin, N-acetyl-5-methoxytryptamine]",sleepiness,[1],no sleepiness
same,activation of COX-2,[2],inhibits the activation
same,COX-1 function,[3],does not inhibit
same,activation of iNOS,[4],inhibits the activation
same,swelling and edema of the paw,[5],reduction of swelling and edema
same,levels of MDA and nitric oxide,[6],decreased levels
same,levels of glutathione,[6],increased levels
